According to ChEMBL document CHEMBL2040717, “Cytotoxic diterpenoids from Sapium insigne” (J Nat Prod, 2012):
Calls of active or inactive are those of the source. The calls are words filed in the database; no cut-off is given here.

Key:
A549 [1] = test: Cytotoxicity against human A549 cells at 100 uM by SRB assay; assay type: functional, cell-based
HL-60 [2] = test: Cytotoxicity against human HL60 cells at 100 uM by MTT assay
A549 [3] = test: Cytotoxicity against human A549 cells by SRB assay; assay type: functional, cell-based
HL-60 [4] = test: Cytotoxicity against human HL60 cells by MTT assay

| SMILES | Activity (A549 [1]) | Activity (HL-60 [2]) | IC50 (A549 [3]) [nM] | IC50 (HL-60 [4]) [nM] |
| --- | --- | --- | --- | --- |
| CC[C@H](C)CC[C@@H]1[C@H](C)CC[C@@H]2C(C)(C)CCC[C@@]12C | inactive | inactive | – | – |
| C[C@H]1C[C@@]23CC[C@@H]4C(C)(C)CCC[C@@]4(C)[C@@H]2CC[C@@H]1C3 | inactive | inactive | – | – |
| C[C@H]1C[C@]23CC[C@H]1C[C@H]2[C@]1(C)CCCC(C)(C)[C@H]1CC3 | inactive | inactive | – | – |
| CCCCCCCC[C@@H](O)/C=C/C=C/C(=O)O[C@@]12C[C@@H](C)[C@@]3(O)[C@@H](C=C(CO)C[C@]4(O)C(=O)C(C)=C[C@@H]34)[C@@H]1[C@@]2(C)COC(C)=O [SAPINSIGNOID A] | – | – | 1800 | 3400 |
| CCCCCCCC[C@H](O)/C=C/C=C/C(=O)O[C@@]12C[C@@H](C)[C@@]3(O)[C@@H](C=C(CO)C[C@]4(O)C(=O)C(C)=C[C@@H]34)[C@@H]1[C@@]2(C)COC(C)=O [SAPINSIGNOID B] | – | – | 200 | 6500 |
| CCCCCCCCC(=O)/C=C/C=C/C(=O)O[C@@]12C[C@@H](C)[C@@]3(O)[C@@H](C=C(CO)C[C@]4(O)C(=O)C(C)=C[C@@H]34)[C@@H]1[C@@]2(C)COC(C)=O [SAPINSIGNOID C] | – | – | 400 | 2700 |
| CCCCCCCC/C=C/C=C/CC(=O)O[C@@]12C[C@@H](C)[C@@]3(O)[C@@H](C=C(CO)C[C@]4(O)C(=O)C(C)=C[C@@H]34)[C@@H]1[C@@]2(C)COC(C)=O [SAPINSIGNOID D] | – | – | 900 | – |
